From patent publication US12226425B2, “Inhibitors of ARG1 and/or ARG2” (Arcus Biosciences, Inc., priority 2018, dated 2025)
pIC50: −log10 of the molar value.

Target: T1, recombinant human ARG1 (Homo sapiens, UniProt P05089)
T1 sequence (P05089 1-322): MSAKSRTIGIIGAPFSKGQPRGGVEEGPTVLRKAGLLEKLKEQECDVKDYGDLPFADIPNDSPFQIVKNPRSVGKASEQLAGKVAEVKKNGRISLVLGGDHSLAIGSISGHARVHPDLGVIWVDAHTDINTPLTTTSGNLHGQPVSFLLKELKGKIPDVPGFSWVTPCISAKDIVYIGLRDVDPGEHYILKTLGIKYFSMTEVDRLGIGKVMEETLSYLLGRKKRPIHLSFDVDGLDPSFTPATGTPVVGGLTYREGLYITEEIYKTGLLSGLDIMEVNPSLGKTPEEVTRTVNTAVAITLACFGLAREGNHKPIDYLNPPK
Experiment: Arginase coupled enzymatic assay using recombinant human ARG1
Type: biochemical
Details: 2 nM ARG1, 0.8 mM L-Arginine, 10 mM sodium phosphate pH 7.4, 0.1 mM MnCl2, 37° C., absorption at 570 nm; read-out: hARG1 potency (IC50)
Experimental: Purified recombinant human ARG1 and ARG2 were prepared in 50 mM Bicine, pH 8.5, 100 μM MnCl2, 20% glycerol and 1mM DTT at a final stock concentration of 14.4 μM and 7.56 μM respectively. 2.5 nM of either ARG1 or ARG2 were incubated with varying concentrations of compounds in 10 mM sodium phosphate, pH 7.4, 0.1 mM MnCl2 and 2.5% DMSO in a total volume of 40 μl in a 384-well microplate (Corning™ #3640) at 37° C. for 1 h. The arginase enzymatic reaction was initiated by addition of 10 μl of 4 mM L-Arginine pre-incubated in 10 mM sodium phosphate, pH 7.4, and 0.1 mM MnCl2 at 37° C. into the enzyme and compound mixture, giving the final reaction conditions: 2 nM of ARG1 or ARG2 and 0.8 mM of L-Arginine in 10 mM sodium phosphate, pH 7.4, 0.1 mM MnCl2 and 2% DMSO with varying concentrations of compounds. Following 2 h incubation at 37° C., the arginase enzymatic reaction was stopped by transfer of 10 μl of reaction into 10 μl of detection mix (204 μM Amino-2-Borono-6-Hexanoic Acid, 0.25 μl Arginase Enzyme mix, 0.25 μl Arginase Developer, 0.25 μl Arginase Converter Enzyme in Arginase Assay Buffer from Arginase Activity Colorimetric Assay Kit, BioVision Inc. #K755-100) in a transparent 384-well microplate (Greiner #781801). The plate was immediately put into a plate reader (Synergy™ Neo2 Multi-Mode Microplate Reader) to monitor absorption at 570 nm at 37° C. Absorption values at 12˜20 min were used to calculate compound potency. The value of the DMSO blank (MIN inhibition=100% activity) was used as a negative control. The positive control was established by adding 8 μl of enzyme and DMSO mix into 10 μl of detection mix followed by addition of 2 μl of L-Arginine (MAX inhibition=0% activity). To calculate the percent activity, Equation 1 was used. Abs570nm is the value at a given compound concentration:
A counter-screen was performed to identify any inhibition of the coupling enzymes by the test compounds. 10 μl of 0.26 mM of urea with varying concentrations of compounds in 10 mM sodium phosphate, pH 7.4, 0.1 mM MnCl2 and 2% DMSO were added into 10 μl of detection mix in place of the arginase enzymatic reaction mix. Absorption was monitored at 570 nm as described above. The values of a no substrate blank (without urea; MAX inhibition=0% activity) and a DMSO blank (MIN inhibition=100% activity) were used as positive and negative controls respectively. […] Inactivity in the counter-screen was used to confirm that results accurately reflected IC50 values for ARG1 and ARG2.

SMILES | pIC50
CC[C@](C)(N)c1cc2c(cc1F)C[C@H](CCCB(O)O)[C@]2(NC)C(=O)O | > 7.00
CN[C@@]1(C(=O)O)c2cc(C(C)(C)C(C)(C)N)c(F)cc2C[C@@H]1CCCB(O)O | > 7.00
N[C@@]1(C(=O)O)c2cccc(-c3cn[nH]c3)c2C[C@@H]1CCCB(O)O | < 6.00
CN[C@@]1(C(=O)O)c2c(F)cc(CN)cc2C[C@@H]1CCCB(O)O | 6.00 to 7.00
N[C@@]1(C(=O)O)c2ccccc2C[C@@H]1CCCB(O)O | 6.00 to 7.00
CN[C@@]1(C(=O)OC)c2cc(CN)c(Cl)cc2C[C@@H]1CCCB(O)O | 6.00 to 7.00
C[C@]1(CCCB(O)O)Cc2ccccc2[C@@]1(N)C(=O)O | < 6.00
CN[C@@]1(C(=O)O)c2cc(-c3ccccc3CCN)c(F)cc2C[C@@H]1CCCB(O)O | > 7.00
NCc1ccc2c(c1)C[C@H](CCCB(O)O)[C@]2(N)C(=O)O | > 7.00
CN[C@@]1(C(=O)O)c2cc(CN)ccc2C[C@@H]1CCCB(O)O | > 7.00
CN[C@@]1(C(=O)O)c2cc(CN3CCC(c4ccccc4)CC3)c(F)cc2C[C@@H]1CCCB(O)O | > 7.00
CN[C@@]1(C(=O)O)c2cc([C@H](N)C3CC3)c(Cl)cc2C[C@@H]1CCCB(O)O | > 7.00
CN[C@@]1(C(=O)O)c2cc(C3(N)CCC3)c(Cl)cc2C[C@@H]1CCCB(O)O | > 7.00
NCCc1ccc2c(c1)C[C@H](CCCB(O)O)[C@]2(N)C(=O)O | 6.00 to 7.00
CN[C@@]1(C(=O)O)c2cc([C@H](N)C(C)C)c(F)cc2C[C@@H]1CCCB(O)O | > 7.00
CN[C@@]1(C(=O)O)c2cc(CNCC(F)(F)F)c(F)cc2C[C@@H]1CCCB(O)O | 6.00 to 7.00
CN[C@@]1(C(=O)O)c2cccc(OC)c2C[C@@H]1CCCB(O)O | < 6.00
CN[C@@]1(C(=O)O)c2cc(CN3CCCC3(C)C)c(F)cc2C[C@@H]1CCCB(O)O | > 7.00
CN[C@@]1(C(=O)O)c2cc([C@@H]3CCCN3)c(F)cc2C[C@@H]1CCCB(O)O | > 7.00
CN[C@@]1(C(=O)O)c2cc([C@H](N)C3CC3)c(F)cc2C[C@@H]1CCCB(O)O | > 7.00
CC[C@H](N)c1cc2c(cc1Cl)C[C@H](CCCB(O)O)[C@]2(NC)C(=O)O | > 7.00
CN[C@@]1(C(=O)O)c2cc(O[C@@H]3CCC[C@H]3N)c(F)cc2C[C@@H]1CCCB(O)O | > 7.00
CN[C@@]1(C(=O)O)c2cc([C@@H](N)C(F)(F)F)ccc2C[C@@H]1CCCB(O)O | 6.00 to 7.00
N[C@@]1(C(=O)O)c2cccc(CO)c2C[C@@H]1CCCB(O)O | < 6.00
CN[C@@]1(C(=O)O)c2ccc(CN)cc2C[C@@H]1CCCB(O)O | > 7.00

SMILES | pIC50
CN[C@@]1(C(=O)O)c2cc(Nc3ccccn3)c(F)cc2C[C@@H]1CCCB(O)O | 6.00 to 7.00
CN[C@@]1(C(=O)O)c2cc([C@@H](N)C3CC3)c(F)cc2C[C@@H]1CCCB(O)O | > 7.00
N[C@@]1(C(=O)O)c2cc(Cl)ccc2C[C@@H]1CCCB(O)O | 6.00 to 7.00
CN[C@@]1(C(=O)O)c2cc(CN3CC[C@@H](F)C3)c(F)cc2C[C@@H]1CCCB(O)O | > 7.00
CN[C@@]1(C(=O)O)c2cc(CNC(=O)[C@H](C)N)ccc2C[C@@H]1CCCB(O)O | > 7.00
CN[C@@]1(C(=O)O)c2cc([C@H]3CCCN3)c(F)cc2C[C@@H]1CCCB(O)O | > 7.00
CN[C@@]1(C(=O)O)c2cc(C3(N)CCC3)c(F)cc2C[C@@H]1CCCB(O)O | > 7.00
CC[C@H](NC)c1cc2c(cc1F)C[C@H](CCCB(O)O)[C@]2(NC)C(=O)O | > 7.00
CN[C@@]1(C(=O)O)c2cc(CN)c(Cl)cc2C[C@@H]1CCCB(O)O | > 7.00
CN[C@@]1(C(=O)O)c2cccc(CN)c2C[C@@H]1CCCB(O)O | > 7.00
CN[C@@]1(C(=O)O)c2cc(Cl)c(CN)cc2C[C@@H]1CCCB(O)O | > 7.00
CN[C@@]1(C(=O)O)c2cc([C@H](N)C(C)C)c(Cl)cc2C[C@@H]1CCCB(O)O | > 7.00
CN[C@@]1(C(=O)O)c2cc(CCCN)c(F)cc2C[C@@H]1CCCB(O)O | > 7.00
N#Cc1cccc2c1C[C@H](CCCB(O)O)[C@]2(N)C(=O)O | < 6.00
CN[C@@]1(C(=O)O)c2cc([C@H](C)N)c(Cl)cc2C[C@@H]1CCCB(O)O | > 7.00
CN[C@@]1(C(=O)O)c2cc(C3(NC(=O)[C@H](C)N)CCC3)c(F)cc2C[C@@H]1CCCB(O)O | 6.00 to 7.00
CN[C@@]1(C(=O)O)c2cc(C3(N)CCCCC3)c(F)cc2C[C@@H]1CCCB(O)O | > 7.00
CN[C@@]1(C(=O)O)c2cc(C3(N)CCCC3)c(F)cc2C[C@@H]1CCCB(O)O | > 7.00
CN[C@@]1(C(=O)O)c2cc(C3(C(C)(C)N)CCC3)c(F)cc2C[C@@H]1CCCB(O)O | > 7.00
CN[C@@]1(C(=O)O)c2cc([C@@H](N)C3CC3)c(Cl)cc2C[C@@H]1CCCB(O)O | > 7.00
CC[C@@H](N)c1cc2c(cc1F)C[C@H](CCCB(O)O)[C@]2(NC)C(=O)O | > 7.00
CN[C@@]1(C(=O)O)c2cc(C3(CN)CCC3)c(F)cc2C[C@@H]1CCCB(O)O | > 7.00
CN[C@@]1(C(=O)O)c2cc([C@H](C)N)c(C)cc2C[C@@H]1CCCB(O)O | > 7.00
Cc1ccc2c(c1)[C@@](N)(C(=O)O)[C@@H](CCCB(O)O)C2 | < 6.00
